How the values were obtained:
[1] = system: platelets (ADP-induced platelet aggregation); assay: ADP-induced platelet aggregation, ex vivo after administration by gavage; settings: po, suspended in water, sonicated, given by gavage, equimolar dose (40 μM), ADP 15 μM
From the text: C. Preparation of Platelet Rich Plasma for the EX VIVO Studies

[2] = system: intracellular nitric oxide level; assay: Enhancement of intracellular nitric oxide; type: cell-based; settings: equimolar (40 μM)
TAase = TAase activity; type: biochemical
[3] = system: platelets (ADP-induced platelet aggregation); assay: ADP-induced platelet aggregation, in vitro (platelet rich plasma); type: cell-based; settings: test compounds equimolar (40 μM); ADP 15 μM
From the text: Preparation of Platelet Rich Plasma for the IN VITRO Studies (7)

## CC(=O)Oc1ccccc1C(=O)O
[1]
  inhibition at 40 µM: 55%
[2]
  Enhancement of Nitric Oxide (folds): Nil
TAase
  TAase Activity (Units): Nil
[3]
  ADP-induced Platelet aggregation (% inhibition) IN VITRO: Nil

## COC(=O)C(c1ccccc1Cl)N1CCc2sccc2C1 (centres unmarked)
[1]
  inhibition at 40 µM: 65%
[2]
  Enhancement of Nitric Oxide (folds): Nil
TAase
  TAase Activity (Units): Nil
[3]
  ADP-induced Platelet aggregation (% inhibition) IN VITRO: Nil

— patent US20110201634A1, “DIHYDROPYRIDIMIDINONE COMPOUNDS FOR THE TREATMENT OF CARDIOVASCULAR DISEASES AND PROCESS FOR PREPARING THE SAME” (DELHI UNIVERSITY, priority 2008, published 2011)
